The results in this text go back to patent publication US20210222105A1, “A Microfluidic Cartridge, A Kit And An Assay” (CENTRE FOR CELLULAR AND MOLECULAR PLATFORMS, priority 2018, published 2021).

Holding throughout (assay type): cell-based, Escherichia coli
One experiment relates to E. coli ATCC 25922. As to the kind of experiment: Agent susceptibility phenotypic assay, microfluidic cartridge compared with 96 well plate. To be noted: 0.5, 1, 2 and 4 μg/ml tested; 0.5 MCF inoculum; cation adjusted Muller Hinton broth; FIG. 14. On the procedure: The agent susceptibility assay was carried out in a microfluidic cartridge. This assay was also carried out in a micro-titer plate as a standard reference control. Bacterial/clinical sample grown at suitable turbidity or at least about 0.3 to about 1.0 McFarland unit was transferred to the microchamber. The microchamber had microbial growth sensors (pH sensor) at concentration of about 5 μM to about 50 μM, cation adjusted Muller Hinton broth or suitable microbial growth media, and antibiotics concentration based on CLSI guidelines. The total reaction volume range was from about 6 μl to about 150 μl. Plate/test card were sealed using plate sealer or lamination film and incubated at about 32° C. to about 37° C., at about 300-500 rpm orbital shaking. The change in the fluorescence intensity of pH sensors was measured using fluorescence reader after every 20-60 minutes till about 4-7 hours incubation period. Thus, the susceptibility or resistance of the microorganism was assessed towards the agent.
Agent susceptibility was tested on microfluidic cartridge and the outcome compared with optimized 96 well plate. Phenotypic assay was optimized on 96 well pate, briefly, an overnight grown E. coli ATCC25922 culture was dispersed in cation adjusted muller Hinton broth to prepare inoculum of 0.5 MCF unit.

Experiment [1] deals with E. coli ATCC 25922 QC strain. As to the kind of experiment: Qualitative phenol red colour-change test of microbial growth in microfluidic cartridge and 96 well plate. To be noted: 37° C., results in 3 hour, FIG. 15. As for the experimental part:
Qualitative test was performed to check microbial growth in the microfluidic cartridge. Phenol red (about 0.05% w/v) containing cation adjusted Muller Hinton broth was used as susceptibility indicator. Microbial growth changes pH and Phenol red changes color with pH variation. Thus, a colour change could provide a read-out on the susceptibility or resistance of a microorganism. No color change would indicate no growth as a response to antibiotics. Briefly, microfluidic cartridge was cleaned with water and then rinsed with 70% ethanol and then UV sterilized by exposing under UV light for about 30 minutes. To compare the susceptibility test preformed on the microfluidic cartridge and 96 well plate, master mix of about 150 μl was prepared on 96 well plate and 6 μl o the master mix was used in microchamber of the microfluidic cartridge. Both 96 well plate and microfluidic cartridge was sealed with lamination film and incubated at 37° C. and change in color intensity was recorded (illustrated in FIG. 15). […] The results were obtained in 3 hour and design of the microfluidic cartridge was suitable for microbial growth and no cross contamination was observed.

The test system of the next experiment is E. coli. As to the kind of experiment: Agent susceptibility test in microfluidic cartridge with DNA-based pH sensor (FRET, donor fluorescence). To be noted: 5×10^5 CFU/ml, 37° C., up to 6 hour incubation, FIGS. 17, 19. On the procedure: About 5 μM sensor was prepared and stored at about 4° C. overnight for equilibration of the sensors. Overnight grown cultures of E. coli, S. aureus, E. faecalis was picked from LB agar plate and dispersed in cation adjusted Mueller Hinton broth with 1% glucose. The concentration of the cells were adjusted to 0.5 MFU. antibiotic dilution was prepared according to CSI guidelines. Stock solutions were prepared in 96 well plate using 23 μl of cation adjusted Muller Hinton broth, 25 μl of desired concentration of antibiotic and 2 μl of 5 μM sensors. Then 50 μl of 1×10^6 CFU/ml inoculum was added in wells to achieve inoculum size 5×10^5 CFU/ml in final assay volume. Each stock solution was loaded on microfluidic cartridge. Microfluidic cartridge was sealed with polypropylene sealing film and incubated at 37° C. with 70% humidity. The change in the donor fluorescence intensity was recorded till 6 hour incubation. Each microchamber of the microfluidic cartridge was image using 1×73 Olympus inverted fluorescence microscope. Images were analyzed using ImageJ version 1.8.0. the average was taken over replicate and standard deviation was calculated (illustrated in FIG. 18).

Molecules are shown by their SMILES.

Regarding `NCC[C@H](O)C(=O)N[C@@H]1C[C@H](N)[C@@H](O[C@H]2O[C@H](CN)[C@@H](O)[C@H](O)[C@H]2O)[C@H](O)[C@H]1O[C@H]1O[C@H](CO)[C@@H](O)[C@H](N)[C@H]1O` [amikacin], the “amikacin concentration at which E. coli ATCC 25922 showed susceptibility” value in the experiment on E. coli ATCC 25922 stood at 2 µg/mL. The “change in colour of indicator dye (phenol red)” value is on record as “no change in the color intensity” in experiment [1] (amikacin concentration above 2 μg/ml); “change in the color of indicator dye” in experiment [1] (at 0.5 and 1 ug/ml amikacin).

Consider `CCN1CCN(C(=O)N[C@@H](C(=O)N[C@@H]2C(=O)N3[C@@H]2SC(C)(C)[C@@H]3C(=O)O)c2ccccc2)C(=O)C1=O` [piperacillin], for which the “sensitivity cut of value” in the experiment with E. coli is reported as “about 2 μg/ml”.
